{"source": "patent US9345738B2", "about": "“Methods for the prevention or treatment of no-reflow following ischemia/reperfusion injury” (Stealth BioTherapeutics Corp., priority 2010, dated 2016)", "key": {"[1]": {"test_system": "plasma membrane of several mammalian cell types", "details": "Zhao et al., 2003; cited from earlier work"}, "mu-opioid receptor": {"test_system": "mu-opioid receptor", "details": "stated in the description, no data shown; cited from earlier work"}, "[2]": {"test_system": "kidney, ischemia/reperfusion insult", "experiment": "Rat model of renal ischemia-reperfusion", "format": "in vivo, Sprague Dawley rat", "details": "rats; 3 mg/kg 30 min before ischemia and before reperfusion; 45 min ischemia and 24 h reperfusion; predicted", "method": "Sprague Dawley rats (250-300 g) are assigned to three groups: (1) sham surgery group without I/R; (2) I/R+saline vehicle treatment; (3) I/R+D-Arg-2′,6′-Dmt-Lys-Phe-NH2 (acetate salt) treatment. D-Arg-2′,6′-Dmt-Lys-Phe-NH2 (acetate salt) (3 mg/kg, dissolved in saline) is administered to rats 30 min before ischemia and immediately before onset of reperfusion. The control rats are given saline alone on the same schedule. Rats are anesthetized with a mixture of ketamine (90 mg/kg, i.p.) and xylazine (4 mg/kg, i.p.). The left renal vascular pedicle is occluded temporarily using a micro-clamp for 30 or 45 min. At the end of the ischemic period, reperfusion is established by removing of the clamp. At that time, the contralateral right kidney is removed. After 24 h reperfusion, animals are sacrificed and blood samples were obtained by cardiac puncture. Renal function is determined by blood urea nitrogen (BUN) and serum creatinine (BioAssay Systems DIUR-500 and DICT-500).\nAnalysis of No-reflow Zones, and Necrosis. The kidneys are sliced transversely into 6-8 sections. The slices are photographed under ultraviolet light to identify the region of no reflow. The areas of no-reflow in each slice are digitized using Image J (supplier Rasband WS, Image J, National Institutes of Health). […]"}, "[3]": {"test_system": "brain, ischemia/reperfusion insult", "experiment": "Mouse model of cerebral ischemia-reperfusion (occlusion of the middle cerebral artery)", "format": "in vivo", "details": "wild type mice; 2-5 mg/kg ip at 0, 6, 24 and 48 h after ischemia; predicted", "method": "Cerebral ischemia initiates a cascade of cellular and molecular events that lead to brain damage. One such event is an anatomic zone of no-reflow. Cerebral ischemia is induced by occlusion of the right middle cerebral artery for 30 min. Wild-type (WT) mice are given either saline vehicle (Veh) (ip) or D-Arg-2′,6′-Dmt-Lys-Phe-NH2 (acetate salt) (2-5 mg/kg) at 0, 6, 24 and 48 h after ischemia. Mice are killed 3 days after ischemia. The brains are sliced transversely into 6-8 sections. The slices are photographed under ultraviolet light to identify the region of no-reflow. The areas of no-reflow in each slice are digitized using Image J (supplier Rasband WS, Image J, National Institutes of Health). The areas in each slice are multiplied by the weight of the slice and the results will summed in order to obtain the mass of the no-reflow areas.\nAs such, the peptide D-Arg-2′,6′-Dmt-Lys-Phe-NH2 is effective in reducing the incidence of no-reflow caused by ischemia-reperfusion in the brain."}, "[4]": {"test_system": "anatomic zone of no-reflow in the heart", "experiment": "No-reflow phenomenon in humans with ST-segment elevation treated with PCI", "format": "in vivo, human", "details": "patients; iv bolus less than 10 min before direct stenting; vs placebo; predicted", "method": "Men and women, 18 years of age or older, who present within 6 hours after the onset of chest pain, who have ST-segment elevation of more than 0.1 mV in two contiguous leads, and for whom the clinical decision is made to treat with percutaneous coronary intervention (PCI) are eligible for enrollment. Patients are eligible for the study whether they are undergoing primary PCI or rescue PCI. Occlusion of the culprit coronary artery (Thrombolysis in Myocardial Infarction [TIMI] flow grade 0) at the time of admission is also a criterion for inclusion.\nLeft ventricular and coronary angiography is performed with the use of standard techniques, just before revascularization. […]\nThe primary end point is the size of the anatomic zone of no-reflow as assessed by one or more imaging techniques. Re-flow phenomenon is assessed using myocardial contrast echocardiography, coronary angiography, myocardial blush, coronary doppler imaging, electrocardiography, nuclear imaging single-photon emission CT, using thallium or technetium-99m, or PET. […] Post-contrast delayed enhancement is used on day 4±1, day 30±3 and 6+1.5 months after successful PCI and stenting to quantify infracted myocardium. This is defined quantitatively by an intensity of the myocardial post-contrast signal that is more than 2 SD above that in a reference region of remote, non-infarcted myocardium within the same slice. […]"}, "[5]": {"test_system": "rabbit heart, ischemia/reperfusion insult", "experiment": "Rabbit model of AMI: regional myocardial ischemia (30 min CAO) and reperfusion (3 h); risk zone, no-reflow zone and infarct size", "format": "in vivo, New Zealand White rabbit", "details": "for No-reflow/area at risk / No-reflow/area of necrosis: all hearts with AR >10% of LV, mean ± SEM; for Mean IA/AR: low dose"}, "[6]": {"details": "Group 1, N=15, infusion from 10′ after CAO"}, "[7]": {"details": "Group 2, N=17, infusion from 20′ after CAO"}, "[8]": {"details": "Group 3, N=17, infusion from 29′ after CAO"}}, "note": "Non-standard residues stand in square brackets, D forms with d. No end group written: not given here.", "data": [{"substance": "2′,6′-Dmt-D-Arg-Phe-Lys-NH2", "values": [{"measurement": "penetration of the plasma membrane", "setting": "[1]", "result": "readily penetrates the plasma membrane of several mammalian cell types in an energy-independent manner"}]}, {"substance": "D-Arg-2′,6′-Dmt-Lys-Phe-NH2", "values": [{"measurement": "mu-opioid receptor agonist activity", "setting": "mu-opioid receptor", "result": "does not have mu-opioid receptor agonist activity"}, {"measurement": "anatomic zone of no-reflow in the kidney", "setting": "[2]", "result": "prevents or reduces the anatomic zone of no-reflow"}, {"measurement": "anatomic zone of no-reflow in the brain", "setting": "[3]", "result": "prevent or reduce the anatomic zone of no-reflow"}, {"measurement": "infarct volume", "setting": "[3]", "result": "significant reduction in infarct volume"}, {"measurement": "size of the anatomic zone of no-reflow", "setting": "[4]", "result": "smaller anatomic zone of no-reflow than that seen with placebo"}, {"measurement": "No-reflow/area at risk", "setting": "[5]; [6]", "result": "0.23 ± 0.02"}, {"measurement": "No-reflow/area of necrosis", "setting": "[5]; [6]", "result": "0.74 ± 0.04"}, {"measurement": "No-reflow/area at risk", "setting": "[5]; [7]", "result": "0.21 ± 0.03"}, {"measurement": "No-reflow/area of necrosis", "setting": "[5]; [7]", "result": "0.63 ± 0.05"}, {"measurement": "No-reflow/area at risk", "setting": "[5]; [8]", "result": "0.21 ± 0.03"}, {"measurement": "No-reflow/area of necrosis", "setting": "[5]; [8]", "result": "0.70 ± 0.09"}, {"measurement": "no-reflow for any given risk zone size", "setting": "[5]; rabbit AMI, ANCOVA, treated groups combined vs control p=0.0085", "result": "significantly reduced"}, {"measurement": "infarct size reduced by up to", "setting": "[5]; rabbit AMI, in some experiments (Table 13; FIG. 5)", "result": "up to 44.7%"}, {"measurement": "infarct size reduced, average", "setting": "[5]; rabbit AMI, in some experiments (not shown)", "result": 11, "unit": "%"}, {"measurement": "Results: reduction of mean IA/AR from placebo", "setting": "[5]; rabbit AMI, infusion started 10 min into 30 min of ischemia", "result": "↓44.7% from placebo"}, {"measurement": "Results: reduction of mean IA/AR from placebo", "setting": "[5]; rabbit AMI, infusion started 20 min into 30 min of ischemia", "result": "↓25.5% from placebo"}, {"measurement": "Results: reduction of mean IA/AR from placebo", "setting": "[5]; rabbit AMI, infusion started 30 min into ischemia immediately prior to reperfusion", "result": "↓25.5% from placebo"}, {"measurement": "Mean IA/AR", "setting": "[5]; rabbit AMI, iv infusion started 10 min into 30 min of ischemia", "result": 20.7, "unit": "%"}, {"measurement": "Mean IA/AR", "setting": "[5]; rabbit AMI, iv infusion started 20 min into 30 min of ischemia", "result": 27.9, "unit": "%"}, {"measurement": "Mean IA/AR", "setting": "[5]; rabbit AMI, iv infusion started 30 min into ischemia immediately prior to reperfusion", "result": 26.7, "unit": "%"}, {"measurement": "reduction in the extent of no-reflow compared with control hearts (trend)", "setting": "[5]; rabbit AMI, treated vs control", "result": 21, "unit": "%"}, {"measurement": "Necrotic area divided by area-at-risk (AN/AR), mean", "setting": "[5]; rabbits with AR/LV >15%, all active groups combined, N=48", "result": 0.318}]}, {"substance": "F[dR]FK-NH2", "values": [{"measurement": "mu-opioid receptor agonist activity", "setting": "mu-opioid receptor", "result": "does not have mu-opioid receptor agonist activity"}]}, {"substance": "Tyr-D-Arg-Phe-Lys-NH2", "values": [{"measurement": "mu-opioid receptor agonist activity", "setting": "mu-opioid receptor", "result": "has mu-opioid receptor agonist activity"}]}]}
